Broadly, the mass density is the mass of a sample divided by its volume. The term refractive index denotes a measure of how strongly the sample bends light.

Structures are written as SMILES. ± gives the expanded uncertainty stated by the source.

For data set [1] the following is noted: Liquid; for mass density: 293.15 K, 101.33 kPa, Pycnometric method; for Normal boiling temperature: Fischer Boiling Apparatus.
A short description of data set [2]: refractive index (Na D-line) (dimensionless). The settings on record: 293.15 K; 101.33 kPa; Liquid; Standard Abbe refractometry.

On to `CCCCCCCCCCCO` [1-undecanol], for which, in data set [1], the mass density was determined as 829.2 ± 0.74 kg/m3 and the Normal boiling temperature was 245.1 ± 1 °C. Moreover, in data set [2], the refractive index is reported as 1.4402 ± 0.0005.

As for `CC(=O)O` [acetic acid], in data set [1], the mass density worked out at 1044.3 ± 0.47 kg/m3 and the Normal boiling temperature was found to be 117.80 ± 1 °C. Further, the refractive index in data set [2] is 1.371 ± 0.0004.

In the case of `CCC(=O)O` [propanoic acid], in data set [1], the mass density is on record as 988.1 ± 0.43 kg/m3 and the Normal boiling temperature was determined as 141.1 ± 1 °C. Moreover, the refractive index in data set [2] is listed as 1.3808 ± 0.0004.

As for `CCCCC(=O)O` [pentanoic acid], in data set [1], the mass density is 932.5 ± 0.4 kg/m3 and the Normal boiling temperature is 186.00 ± 1 °C. Besides, in data set [2], the refractive index amounted to 1.4088 ± 0.0004.

For the compound `O` [water], in data set [1], the mass density is on record as 999.9 ± 0.26 kg/m3 and the Normal boiling temperature is 100.1 ± 1 °C. In data set [2], the refractive index is 1.3324 ± 0.0003.

`O=CO` [formic acid]: in data set [1], the mass density came out at 1218.5 ± 1.5 kg/m3 and the Normal boiling temperature is 101.1 ± 1 °C. In addition, the refractive index in data set [2] is listed as 1.3721 ± 0.0005.
